Test results as given in patent US20240277798A1, “CYCLOSPORINE COMPOSITIONS AND METHODS OF USE” (Bacainn Biotherapeutics, Ltd., priority 2021, published 2024).

Tests used:
[1] = target: T1, FPR1 (Homo sapiens, UniProt P21462); test: Inhibition of FPR1 measured as inhibition of fMLP-induced neutrophil transmigration across T84 monolayer; format: cell-based; details: FIG. 3B
T1 construct: endogenous in cells; host or cells: freshly isolated human neutrophils (PMNs), migrating across a T84 epithelial monolayer
T1 sequence (P21462 1-350): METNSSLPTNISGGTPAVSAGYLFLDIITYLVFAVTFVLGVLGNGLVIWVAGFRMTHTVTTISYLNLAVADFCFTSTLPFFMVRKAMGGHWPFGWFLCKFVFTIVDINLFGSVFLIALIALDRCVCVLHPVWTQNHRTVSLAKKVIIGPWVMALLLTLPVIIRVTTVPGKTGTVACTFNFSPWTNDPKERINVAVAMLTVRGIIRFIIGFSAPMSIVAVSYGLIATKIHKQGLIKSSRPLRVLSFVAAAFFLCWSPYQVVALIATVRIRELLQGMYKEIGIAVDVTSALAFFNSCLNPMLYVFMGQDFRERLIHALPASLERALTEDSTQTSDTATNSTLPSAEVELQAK
Description: T84 colorectal cancer cells were grown to confluence on the bottom side of 12 well polycarbonate membrane inserts of a 24 well Transwell® plate. The confluent growth of these epithelial cells results in physiologically-relevant apical (luminal) and basolateral surfaces in the transwells. Freshly isolated and prepared human neutrophils were pretreated in compound (BT051 or cyclosporine A) for 1 hour on ice.
BT051 or cyclosporine A was added to the apical surface of the monolayer. The potent neutrophil chemoattractant, N-formyl-methionyl-leucyl-phenylalanine (fMLP) (100 nM), which activates neutrophil migration via its interaction with the FPR1 protein on neutrophils, was also added to the apical side of the monolayer. The compound-treated neutrophils were then added to the basolateral side and allowed to transmigrate through the monolayer for 2 hours. The number of neutrophils migrated to the apical chamber (due to the fMLP gradient) was then assayed by determination of myeloperoxidase activity (a neutrophil biomarker). Inhibition of transmigration is indicated by lower MPO activity in the apical chamber.
T84 colorectal cancer cells are grown to confluence on the bottom side of 12 well polycarbonate membrane inserts of a 24 well Transwell® plate. The confluent growth of these epithelial cells results in physiologically-relevant apical (luminal) and basolateral surfaces in the transwells. […]

[2] = test system: human neutrophils; test: PMN transmigration assay (Salmonella typhimurium-infected T84 monolayer, HXA3/MRP2-driven neutrophil migration, MPO readout); format: cell-based
Description: PMN transmigration assay. T84 colorectal cancer cells were grown to confluence on the bottom side of 12 well polycarbonate membrane inserts of a 24 well Transwell® plate. The confluent growth of these epithelial cells results in physiologically-relevant apical (luminal) and basolateral surfaces in the transwells. […] The monolayer was then infected on the apical surface with Salmonella typhimurium for 2 hours to induce hepoxilin A3 (HXA3) efflux through the MRP2 membrane protein and into the apical chamber. […] Freshly isolated and prepared human neutrophils were then added to the basolateral side and allowed to transmigrate through the monolayer for 2 hours. The number of neutrophils migrated to the apical chamber (due to the HXA3 gradient) was then assayed by determination of myeloperoxidase activity (a neutrophil biomarker). Inhibition of transmigration is indicated by lower MPO activity in the apical chamber.

inhibition of PMN transmigration/activation ([1]; concentration not given): approximately 50% | fMLP-mediated PMN transmigration/activation ([1]; result in words): inhibit
Structure (SMILES): CC[C@@H]1NC(=O)[C@H]([C@H](O)[C@H](C)CCCCCC(=O)O)N(C)C(=O)[C@H](C(C)C)N(C)C(=O)[C@H](CC(C)C)N(C)C(=O)[C@H](CC(C)C)N(C)C(=O)[C@@H](C)NC(=O)[C@H](C)NC(=O)[C@H](CC(C)C)N(C)C(=O)[C@H](C(C)C)NC(=O)[C@H](CC(C)C)N(C)C(=O)CN(C)C1=O [BT070]
dose-response of inhibition of neutrophil migration ([2]; FIG. 1, result in words): dose-responsive inhibition | inhibition of neutrophil migration ([2]; dose of 100 nM, result in words): exhibit inhibition
